Laboratory results as given in the supplement of paper PMC5908809.

How the values were obtained:
[1] = tested on: normal NK cells expanded with K562-aAPC; assay: percent inhibition of viability; higher = more inhibition; conditions: 72 h, IL-2 2.5 ng/mL
Description: (§1)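 Drug sensitivity and resistance testing on K562-aAPC-expanded normal NK cells: 5 concentrations (10-fold steps over a 10,000-fold range), 72 h at 37 °C, viability by CellTiter-Glo normalised to DMSO and benzethonium chloride controls; DSS from the fitted curve.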

DERL-7 (IL-2 2.5 ng/mL) [2] = assay: as above; conditions: 72 h
IMC-1 (IL-2 20 ng/mL) [3] = assay: as above; conditions: 72 h
KAI3 (IL-2 2.5 ng/mL) [4] = assay: as above; conditions: 72 h
KHYG-1 (IL-2 2.5 ng/mL) [5] = assay: as above; conditions: 72 h
NK-92 (IL-2 2.5 ng/mL) [6] = assay: as above; conditions: 72 h
NK-YS (IL-2 2.5 ng/mL) [7] = assay: as above; conditions: 72 h
NKL (IL-2 2.5 ng/mL) [8] = assay: as above; conditions: 72 h
SNK-6 (IL-2 2.5 ng/mL) [9] = assay: as above; conditions: 72 h
YT (IL-2 2.5 ng/mL) [10] = assay: as above; conditions: 72 h
[11] = tested on: normal primary NK cells, pool 1 (3 donors) (IL-2 2.5 ng/mL); assay: as above; conditions: 72 h
[12] = tested on: normal primary NK cells, pool 1 (3 donors), resting (IL-2 0 ng/mL); assay: as above; conditions: 72 h
[13] = tested on: normal primary NK cells, pool 2 (3 donors) (IL-2 2.5 ng/mL); assay: as above; conditions: 72 h
[14] = tested on: normal primary NK cells, pool 3 (3 donors) (IL-2 2.5 ng/mL); assay: as above; conditions: 72 h
[15] = tested on: normal NK cells expanded with K562-aAPC; assay: drug sensitivity score (DSS) (DSS units); higher = more sensitive; extreme values may be limits of the assay; conditions: 72 h; IL-2 2.5 ng/mL
Description: as §1

DERL-7 (IL-2 2.5 ng/mL) [16] = assay: as above; conditions: 72 h
IMC-1 (IL-2 20 ng/mL) [17] = assay: as above; conditions: 72 h
KAI3 (IL-2 2.5 ng/mL) [18] = assay: as above; conditions: 72 h
KHYG-1 (IL-2 2.5 ng/mL) [19] = assay: as above; conditions: 72 h
NK-92 (IL-2 2.5 ng/mL) [20] = assay: as above; conditions: 72 h
NK-YS (IL-2 2.5 ng/mL) [21] = assay: as above; conditions: 72 h
NKL (IL-2 2.5 ng/mL) [22] = assay: as above; conditions: 72 h
SNK-6 (IL-2 2.5 ng/mL) [23] = assay: as above; conditions: 72 h
YT (IL-2 2.5 ng/mL) [24] = assay: as above; conditions: 72 h
[25] = tested on: normal primary NK cells, pool 1 (3 donors) (IL-2 2.5 ng/mL); assay: as above; conditions: 72 h
[26] = tested on: normal primary NK cells, pool 1 (3 donors), resting (IL-2 0 ng/mL); assay: as above; conditions: 72 h
[27] = tested on: normal primary NK cells, pool 2 (3 donors) (IL-2 2.5 ng/mL); assay: as above; conditions: 72 h
[28] = tested on: normal primary NK cells, pool 3 (3 donors) (IL-2 2.5 ng/mL); assay: as above; conditions: 72 h

S=c1[nH]cnc2nc[nH]c12 [Mercaptopurine] (max concentration tested 10000 nM)
percent inhibition of viability [%]
Conditions	1 nM	10 nM	100 nM	1000 nM	10000 nM
DERL-7 (IL-2 2.5 ng/mL) [2]	-4.35	-1.44	0.98	9.85	47
IMC-1 (IL-2 20 ng/mL) [3]	-3.21	-3.47	2.38	21.7	91.4
KAI3 (IL-2 2.5 ng/mL) [4]	-5.39	-4.2	-7.01	6.69	53.7
KHYG-1 (IL-2 2.5 ng/mL) [5]	-2.69	-0.22	5.34	30	99.3
NK-92 (IL-2 2.5 ng/mL) [6]	-10.3	-10.7	12.1	38.5	53.5
NK-YS (IL-2 2.5 ng/mL) [7]	-2.27	-1.87	9.74	52.6	90.4
NKL (IL-2 2.5 ng/mL) [8]	-15.5	0	-11.9	-4.76	6.22
SNK-6 (IL-2 2.5 ng/mL) [9]	11.4	16.1	38.4	75.4	94.4
YT (IL-2 2.5 ng/mL) [10]	-0.59	-2.35	3.64	24.6	81.8
[1]	-5.16	4.06	-1.48	3.65	11.2
[11]	-1.1	-6.11	-2.9	-10.7	0.61
[12]	-2.87	-18.3	-8.34	-34.9	-22.3
[13]	-14.1	-7.32	-6.91	-13.4	3.06
[14]	-16.8	-9.02	-3.33	-7.89	8.16

Conditions	drug sensitivity score
DERL-7 (IL-2 2.5 ng/mL) [16]	4.05
IMC-1 (IL-2 20 ng/mL) [17]	8.45
KAI3 (IL-2 2.5 ng/mL) [18]	3.99
KHYG-1 (IL-2 2.5 ng/mL) [19]	9.71
NK-92 (IL-2 2.5 ng/mL) [20]	8.34
NK-YS (IL-2 2.5 ng/mL) [21]	11.6
NKL (IL-2 2.5 ng/mL) [22]	0
SNK-6 (IL-2 2.5 ng/mL) [23]	19.7
YT (IL-2 2.5 ng/mL) [24]	8.11
[15]	0.11
[25]	0
[26]	0
[27]	0
[28]	0

O=C(Nc1cccc(Cl)c1)Nc1ncc(CCNc2ncnc3ccsc23)s1 [SNS-314] (max concentration tested 1000 nM)
percent inhibition of viability [%]
Conditions	0.1 nM	1 nM	10 nM	100 nM	1000 nM
DERL-7 (IL-2 2.5 ng/mL) [2]	-2.96	-1.43	3.21	69.3	58.4
IMC-1 (IL-2 20 ng/mL) [3]	-9.62	-5.56	14.2	10.2	70.4
KAI3 (IL-2 2.5 ng/mL) [4]	-2.71	-1.61	20.4	30.6	47.3
KHYG-1 (IL-2 2.5 ng/mL) [5]	-7.32	-4.71	35.4	53.6	68
NK-92 (IL-2 2.5 ng/mL) [6]	-4.05	-1.72	20.3	45.2	83.4
NK-YS (IL-2 2.5 ng/mL) [7]	-8.15	-3.63	-0.24	70.4	75.2
NKL (IL-2 2.5 ng/mL) [8]	-9.51	-8.35	6.03	23.5	42.8
SNK-6 (IL-2 2.5 ng/mL) [9]	-12.7	-23.7	33.2	59.5	70
YT (IL-2 2.5 ng/mL) [10]	-4.76	-1.46	7.82	19	37.3
[1]	-6.43	-10	4.3	43.3	42.2
[11]	1.31	16.9	9.79	4.5	10.9
[12]	3.09	19.6	8.47	17.5	20.9
[13]	-8.39	1.8	4.68	5.41	5.48
[14]	-5.85	0.22	7.29	3.37	8.78

Conditions	drug sensitivity score
DERL-7 (IL-2 2.5 ng/mL) [16]	13.1
IMC-1 (IL-2 20 ng/mL) [17]	5.61
KAI3 (IL-2 2.5 ng/mL) [18]	7.77
KHYG-1 (IL-2 2.5 ng/mL) [19]	15
NK-92 (IL-2 2.5 ng/mL) [20]	11.2
NK-YS (IL-2 2.5 ng/mL) [21]	13
NKL (IL-2 2.5 ng/mL) [22]	4.85
SNK-6 (IL-2 2.5 ng/mL) [23]	17.1
YT (IL-2 2.5 ng/mL) [24]	3.89
[15]	8.52
[25]	0
[26]	3.41
[27]	0
[28]	0

COc1cc(F)c(F)c(Nc2ccc(I)cc2F)c1NS(=O)(=O)C1(C[C@H](O)CO)CC1 [Refametinib] (max concentration tested 10000 nM)
percent inhibition of viability [%]
Conditions	1 nM	10 nM	100 nM	1000 nM	10000 nM
DERL-7 (IL-2 2.5 ng/mL) [2]	6.17	13	30.2	53.8	78
IMC-1 (IL-2 20 ng/mL) [3]	-4.32	-6.37	-1.56	6.1	35.3
KAI3 (IL-2 2.5 ng/mL) [4]	-4.59	6.78	18.3	26.5	39.6
KHYG-1 (IL-2 2.5 ng/mL) [5]	-5.12	4.63	33.5	62.9	76.7
NK-92 (IL-2 2.5 ng/mL) [6]	-0.27	-1.5	-9.05	19.5	37.8
NK-YS (IL-2 2.5 ng/mL) [7]	-4.96	-5.01	5	14.1	31.5
NKL (IL-2 2.5 ng/mL) [8]	-2.52	16.4	39.5	74.4	82.3
SNK-6 (IL-2 2.5 ng/mL) [9]	2.1	-35.6	-25	-46.3	-9.38
YT (IL-2 2.5 ng/mL) [10]	1.91	1.53	7.51	17.5	44.4
[1]	-5.33	-11.3	-6.84	4.3	23.1
[11]	-10.8	15.4	14	11.4	29.1
[12]	0.56	9.23	10.7	12.4	49.4
[13]	0	6.56	8.63	16.2	40.9
[14]	-4.86	5.75	-0.36	3.44	28.4

Conditions	drug sensitivity score
DERL-7 (IL-2 2.5 ng/mL) [16]	14.7
IMC-1 (IL-2 20 ng/mL) [17]	2.67
KAI3 (IL-2 2.5 ng/mL) [18]	6.75
KHYG-1 (IL-2 2.5 ng/mL) [19]	16
NK-92 (IL-2 2.5 ng/mL) [20]	4.28
NK-YS (IL-2 2.5 ng/mL) [21]	2.69
NKL (IL-2 2.5 ng/mL) [22]	19.1
SNK-6 (IL-2 2.5 ng/mL) [23]	0
YT (IL-2 2.5 ng/mL) [24]	4.03
[15]	1.44
[25]	3.32
[26]	4.14
[27]	3.81
[28]	1.74
